Measured values from patent US20230242616A1, “CHEMOKINE-SELECTIVE CXCR4 ECTODOMAIN-DERIVED (POLY)PEPTIDE” (Ludwig-Maximilians-Universität München, priority 2020, published 2023).

Assays:
[1] = molecular target: T1, CXCL12 (Homo sapiens, UniProt P48061); assay: Dot blot titration with TAMRA-msR4M-L1, immobilized CXCL12; type: binding
T1 construct: purchased Peprotech (or a gift of Dr. von Hundelshausen, LMU Munich)
Description: Dot blot. […] Non-specific binding was blocked with Tris-buffered saline (TBS), pH 7.4, containing 0.1% Tween-20 (TBS-T) and 1% BSA. […] Fluorescence intensities were measured at 600 nm using an Odyssey® Fc imager (LICOR Biosciences, Bad Homburg, Germany). The total intensity of each spot was automatically corrected by the individual background signal.

[2] = test system: atherogenic Apoe−/− mice; assay: Localization of in-vivo-administered Fluos-msR4M-L1 (multiphoton microscopy); design: species or system mouse; details: three days before vessel preparation
[3] = molecular target: T2, plaque-associated MIF (Mus musculus, UniProt P34884); assay: Staining of mouse atherosclerotic plaque sections with Fluos-msR4M-L1; details: Ldlr−/− aortic root, Apoe−/− brachiocephalic artery
T2 construct: from tissue; host or cells: aortic root (Ldlr-/-) and brachiocephalic artery (Apoe-/-) sections of atherogenic mice
Description: Staining of atherosclerotic plaque tissue with Fluos-msR4M-L1. Immunofluorescent staining of atherosclerotic tissue with Fluos-msR4M-L1 was performed with specimens from atherogenic Ldlr^−/− and Apoe^−/− mice. Ldlr^−/− mice were on chow diet for 30 weeks and developed native atherosclerotic lesions as reported previously^14. Mif-deficient mice (Ldlr^−/− Mif^−/−) were used for comparison. Aortic root sections were deparaffinized and rehydrated. For antigen retrieval, slides were boiled in sodium citrate buffer, pH 6.0, 0.05% Tween-20, and blocked with PBS, containing 5% donkey serum and 1% BSA. For staining, slides were incubated at 4° C. with Fluos-msR4M-L1 (5 μM) in blocking buffer. DAPI was used for nuclear counterstain and sections were imaged using a Leica DMI8 fluorescent microscope. The mean fluorescence intensity localized to the aortic vessel wall was quantified via Image J.
Sides were fixed in ice-cold acetone, rehydrated in PBS, and blocked in PBS/1% BSA, incubated with 500 nM Fluos-msR4M-L1, and analyzed as above.

[4] = test system: human carotid atherosclerotic plaque sections; assay: Staining of human carotid endarterectomy plaque sections with Fluos-msR4M-L1
Source text: Patient population, study groups and tissue samples. Carotid artery tissue samples (n=28) came from the Munich Vascular Biobank (MVB) and were from patients who underwent carotid endarterectomy (CEA) in the Department of Vascular and Endovascular Surgery at University Hospital of Technische Universität München. Preparation of samples for histological and IHC analysis has been reported^40. […] Healthy FFPE carotid vessels were obtained from the Forensic Medicine Department (n=6). The type of atherosclerotic lesions in the CEA samples was determined according to the American Heart Association (AHA) guidelines using HE and Elastica-van-Gieson (EVG) staining procedures as described^40. […] The study was approved by the local ethical committee of the University Hospital and followed the Guidelines of the World Medical Association Declaration of Helsinki. All patients provided informed consent. Immunohistochemistry/immunofluorescence staining. Immunofluorescence staining of human CEA tissues with Fluos-msR4M-L1 was performed using the same protocol as for paraffin-embedded specimens from Ldlr^−/− mice (see above). […] HRP-conjugated polyclonal rabbit anti-goat immunoglobulin (DAKO, P0160, 1:1000) was used as secondary antibody. Slides were counterstained with Mayer hematoxylin and stainings analyzed with a Leica DMi8.

[5] = test system: primary human monocyte-derived macrophages; assay: Dil-LDL uptake / foam cell formation, MIF-mediated; type: cell-based; details: 80 nM MIF
Description: Dil-LDL uptake/foam cell formation. […] After washing with imaging solution (MEM without phenol red containing 30 mM HEPES, 0.5 g/L NaHCO3, pH 7.4, and 0.2% BSA), cells were exposed to 50 μg/mL 1,1′-dioctadecyl-3,3,3′3′-tetra-methylindocarbocyanine-labeled LDL (Dil-LDL) for 30 min at 4° C. followed by incubation at 37° C. for 20 min. Cells were washed with ice-cold imaging solution (pH 3.5), fixed, and counter-stained with Hoechst 33258.

[6] = test system: human monocyte-derived macrophages; assay: cells; details: Macrophage, read-out: IC50 of MIF-triggered Dil-oxLDL uptake
[7] = test system: human monocyte-derived macrophages; details: from titration of the CXCR4 inhibitor

T1 sequence (P48061 22-93): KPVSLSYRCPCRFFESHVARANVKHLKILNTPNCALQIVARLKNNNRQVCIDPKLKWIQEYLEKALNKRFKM

CC[C@H](C)[C@H](NC(=O)[C@H](Cc1ccc(O)cc1)NC(=O)[C@H](CCCNC(=N)N)NC(=O)[C@H](CC(=O)O)NC(=O)CCCCCCCCCCCNC(=O)CCCCCNC(=O)[C@H](CCCCN)NC(=O)[C@H](CS)NC(=O)[C@H](CC(C)C)NC(=O)[C@H](Cc1ccccc1)NC(=O)[C@H](CC(N)=O)NC(=O)CNC(=O)[C@H](Cc1ccccc1)NC(=O)[C@H](Cc1ccc(O)cc1)NC(=O)[C@H](Cc1c[nH]c2ccccc12)NC(=O)[C@H](CC(N)=O)NC(=O)[C@H](C)NC(=O)[C@@H](NC(=O)[C@H](C)NC(=O)[C@H](CC(=O)O)NC(=O)c1ccc2c(c1)C(=O)OC21c2ccc(N(C)C)cc2Oc2cc(N(C)C)ccc21)C(C)C)C(=O)N[C@@H](CS)C(=O)N[C@@H](CC(=O)O)C(=O)N[C@@H](CCCNC(=N)N)C(=O)N[C@@H](Cc1ccccc1)C(=O)N[C@@H](Cc1ccc(O)cc1)C(=O)N1CCC[C@H]1C(=O)N[C@@H](CC(N)=O)C(=O)N[C@@H](CC(=O)O)C(=O)N[C@@H](CC(C)C)C(=O)N[C@@H](Cc1c[nH]c2ccccc12)C(=O)N[C@H](C(N)=O)C(C)C [TAMRA-msR4M-L1, TAMRA-ECL1-6-Ahx-12-Ado-ECL2]
binding to immobilized CXCL12 on dot blot [1]: no binding to CXCL12

Fluos-ECL1-6-Ahx-12-Ado-ECL2 (DAVANWYFGNFLCKDRYICDRFYPNDLWV; non-natural residues) [Fluos-msR4M-L1]
tissue localization after intraperitoneal injection [2]: strongly localized to intimal plaque areas, while staining in spleen, liver, and brain was marginal
staining of plaque sections, Mif-proficient versus Mif-deficient mice [3]: significantly more pronounced in plaque tissue from Mif-proficient atherogenic
staining of stable versus unstable human carotid plaques and healthy vessels [4]: pronounced staining of stable carotid plaque tissue that was higher than Fluos-msR4M-L1 positivity detected in unstable plaques and healthy vessels

c1cc(CN2CCCNCCNCCCNCC2)ccc1CN1CCCNCCNCCCNCC1 [AMD3100, reference compound]
effect on MIF-mediated Dil-LDL uptake [5]: blocked
IC50 [6]: 48.9 nM
CXCR4-dependent part of MIF-triggered oxLDL uptake [7]: approximately 50%
